{
  "source": "patent US20100130450A1",
  "about": "“Methods of Treating Fungal Infections” (NORTHEASTERN UNIVERSITY, priority 2007, published 2010)",
  "key": {"[1]": {"test_system": "Mature biofilms of wild type C. albicans", "assay": "Potentiation of biofilm killing by miconazole, CFU analysis", "format": "cell-based, Candida albicans", "conditions": "for biofilm killing by the compound alone (CFU): alone: 100 μg/ml miconazole or 200 μg/ml hit compound", "method": "Next, the same checkerboard assay was repeated to test the ability of the hit compounds to potentiate biofilm killing by miconazole. Mature biofilms of wild type C. albicans were challenged with 100 μg/ml miconazole, 200 μg/ml of the hit compound, or a combination of the two for 24 hrs. Biofilms were then washed, scraped, resuspended in PBS, vortexed for 30 seconds and plated for CFU analysis."}, "[2]": {"test_system": "Candida albicans strain CAF4-2 biofilms", "format": "cell-based", "conditions": "for inhibition of metabolic activity by the compound alone (XTT): any concentration tested", "method": "Specifically, a screen was developed using C. albicans cells treated with miconazole at subinhibitory concentrations, to which candidate potentiator compounds were added. […] In order to make the screen compatible with high-throughput approaches, biofilms were grown in microtiter plates and the reduction of a vital dye XTT, commonly used to monitor yeast viability, was used as the quantitative readout.\nMicrotiter plate wells were seeded with wild type Candida albicans strain CAF4-2. Biofilms were grown for 48 hrs at 37° C., washed with PBS pH 7.4, and resuspended in a final volume of 100 μl RPMI containing 10 μg/ml miconazole. Individual compounds from ChemBridge DiverSet E (ChemBridge Corp., San Diego, Calif.) were then added at 10 μg/ml to the wells. Plates were incubated for 24 hrs and XTT (Sigma-X4751) was added at 1 mg/ml to each well. After 4 hrs of incubation at 37° C., reduction of XTT was monitored by recording the optical density at 690 nm (subtracted from OD450) with a microtiter plate reader. Hits were identified when XTT reduction was inhibited by more than 30% of the control values.\nA checkerboard assay was then performed to examine possible synergy between miconazole and the hits. 100 μg/ml miconazole (2× dilution in each subsequent well, y-axis) and 100 μg/ml compound AC9 (2× dilution, x-axis) were added to mature 48 hr wild type C. albicans biofilms and incubated for an additional 24 hrs in the presence of the drugs. XTT was added to each well at 1 mg/ml and biofilms were incubated at 37° C. for an additional 4 hrs.\nAs described in Example 2, initially 5,000 compounds of the 16,000 from the ChemBridge library were screened for potentiators of miconazole action against C. albicans biofilms. A larger screen is conducted on the remaining 11,000 compounds from the ChemBridge library. Screening is performed as described in Example 2 using 96-well plates. Candida biofilms are formed by growing cells for 48 hrs at 37° C. in a shaking incubator in 96-well microtiter plates according to standard protocol (Ramage et al., Antimicrob. Agents Chemother. 45:2475-2479 (2001)). […] 10 μg/ml miconazole is added to each well and 10 μg/ml of unique compounds is added to rows 2-11 and the plates are incubated for 24 hrs at 37° C. XTT is then added to each well at 1 mg/ml and the plates are incubated for an additional 4 hrs at 37° C. The amount of XTT converted to dye is quantified with a plate reader by subtracting the optical density at 690 nm from the optical density at 450 nm. […] Positive hits are scored when the optical density of the experimental well is <0.7."}, "[3]": {"test_system": "Biofilms of C. albicans 3153A cells", "assay": "C. albicans biofilm killing by antifungals, CFU determination", "format": "cell-based, Candida albicans", "conditions": "for shape of biofilm killing curve: dose-dependent", "method": "Biofilms of C. albicans 3153A cells were cultured in wells of microtiter plates in RPMI medium for 48 hrs (Ramage et al., Antimicrob. Agents Chemother. 45:2475-2479 (2001)), washed twice in PBS pH 7.4 to remove nonadherent cells, and resuspended in 100 μl RPMI growth medium containing antifungals. After 24 hrs of antifungal challenge, the biofilms and cultures were washed twice, resuspended in 100 μl PBS, scraped, transferred into eppendorf tubes, vortexed and plated for colony forming unit (CFU) determination on YPD medium. […] In parallel, exponentially growing and stationary planktonic cultures were grown for 48 hrs in RPMI medium, and then antifungals were added for 24 hrs. The experiment was performed in triplicate and error bars indicate standard deviation (see FIG. 1).\nBiofilms were grown in microtiter plates and were treated with amphotericin B or chlorhexidine (100 μg/ml) for 24 hrs, after which they were washed and vortexed, as discussed above. The cells were then reinoculated into microtiter plates to form new biofilms. The new biofilms, derived from persisters that survived drug treatment, were again treated with the antifungal agents (as discussed above), and the procedure was repeated a total of 3 times. Biofilms were sampled for CFU determination before and after antifungal treatment. The experiment was performed in triplicate.\nTests were also performed to determine if yeast persisters were multidrug tolerant. Mature, 48 hr biofilms of C. albicans were challenged for 24 hrs with 100 μg/ml amphotericin B, 100 μg/ml chlorhexidine, or a combination of these two antifungal agents, using the same procedures discussed above. Biofilms were washed and sampled for CFU determination before and after antifungal treatment, as discussed above."}, "[4]": {"test_system": "C. albicans 3153A planktonic cultures", "assay": "Killing of exponentially growing and stationary planktonic cultures, CFU", "format": "cell-based, Candida albicans", "conditions": "antifungal added for 24 hrs", "method": "(§1) Biofilms of C. albicans 3153A cells were cultured in wells of microtiter plates in RPMI medium for 48 hrs (Ramage et al., Antimicrob. Agents Chemother. 45:2475-2479 (2001)), washed twice in PBS pH 7.4 to remove nonadherent cells, and resuspended in 100 μl RPMI growth medium containing antifungals. After 24 hrs of antifungal challenge, the biofilms and cultures were washed twice, resuspended in 100 μl PBS, scraped, transferred into eppendorf tubes, vortexed and plated for colony forming unit (CFU) determination on YPD medium. […] This could lead to an underestimation of surviving cells by a factor of ≦10. In parallel, exponentially growing and stationary planktonic cultures were grown for 48 hrs in RPMI medium, and then antifungals were added for 24 hrs. The experiment was performed in triplicate and error bars indicate standard deviation (see FIG. 1)."}, "[5]": {"test_system": "biofilm-deficient strains of C. albicans", "assay": "Persister formation by biofilm-deficient strains (survival to high levels of amphotericin B)", "format": "cell-based, Candida albicans", "method": "as §1\n[…] A large panel of biofilm-defective mutants was therefore tested for their ability to produce persisters by measuring survival to high levels of amphotericin B. These mutants were able to adhere to the surface of a microtiter plate, making it possible to assay in the biofilm survival protocol described above. Unexpectedly, all strains appeared to produce essentially normal levels of persisters (Table 1)."}, "C. albicans": {"test_system": "C. albicans", "assay": "MIC", "format": "cell-based, Candida albicans"}, "[6]": {"conditions": "mouse; cited from earlier work"}},
  "note": "Entries after “also recorded” stand apart in the source; their conditions may differ.",
  "data": [
    {"smiles": "Oc1c(/N=N/c2ccccn2)ccc2ccccc12", "note": "[AC9]", "values": [
      {"measurement": "biofilm killing in the presence of miconazole (CFU)", "setting": "[1]; 100 μg/ml miconazole + 200 μg/ml compound, 24 hrs", "value": "Complete eradication; also recorded: completely eradicated"},
      {"measurement": "biofilm killing by the compound alone (CFU)", "setting": "[1]; 24 hrs", "value": "Neither miconazole nor AC9 alone had any killing activity"},
      {"measurement": "minimal concentration at which the compound potentiates complete killing of C. albicans by miconazole", "setting": "[1]; with miconazole", "value": 100, "unit": "µg/mL"},
      {"measurement": "calculated OD value (OD450 minus OD690) of the positive control", "setting": "[2]; AC9 at 10 μg/ml plus 10 μg/ml miconazole, negative control >1", "value": 0.4},
      {"measurement": "inhibition of metabolic activity by the compound alone (XTT)", "setting": "[2]", "value": "Neither miconazole nor AC9 alone inhibited metabolic activity"},
      {"measurement": "lowest concentration with inhibition of metabolic activity (XTT checkerboard)", "setting": "[2]; in the presence of 12.5 μg/ml miconazole, 48 hr biofilm, 24 hrs", "value": 3.1, "unit": "µg/mL"},
      {"measurement": "synergy with miconazole (XTT checkerboard)", "setting": "[2]; up to 100 μg/ml each, 2x dilutions", "value": "clear synergy"},
      {"measurement": "rank among the hits in the XTT reduction inhibition checkerboard assay", "setting": "[2]; with miconazole", "value": "most active compound among the hits"}
    ]},
    {"smiles": "CC[C@H](C)C[C@H](C)CCCCCCCCC(=O)N[C@H]1C[C@@H](O)[C@@H](NCCN)NC(=O)[C@@H]2[C@@H](O)CCN2C(=O)[C@H]([C@H](O)CCN)NC(=O)[C@H]([C@H](O)[C@@H](O)c2ccc(O)cc2)NC(=O)[C@@H]2C[C@@H](O)CN2C(=O)[C@H]([C@@H](C)O)NC1=O", "note": "[Caspofungin, caspofungin]", "values": [
      {"measurement": "killing of biofilms", "setting": "[3]; 48 hr biofilm, 24 hrs antifungal challenge, CFU", "value": "≤ 10", "unit": "fold"}
    ]},
    {"smiles": "C[C@@H]1[C@H](O)[C@@H](C)/C=C/C=C/C=C/C=C/C=C/C=C/C=C/[C@H](O[C@@H]2O[C@H](C)[C@@H](O)[C@H](N)[C@@H]2O)C[C@@H]2O[C@](O)(C[C@@H](O)C[C@@H](O)[C@H](O)CC[C@@H](O)C[C@@H](O)CC(=O)O[C@H]1C)C[C@H](O)[C@H]2C(=O)O", "note": "[amphotericin B]", "values": [
      {"measurement": "killing of exponentially growing and stationary planktonic cells", "setting": "[4]", "value": "effectively killed exponentially growing and stationary cells"},
      {"measurement": "Persisters", "setting": "[5]; strain 3153A", "value": "+++^1 (1-2% survival)"},
      {"measurement": "Persisters", "setting": "[5]; strain CAI4", "value": "+^3 (0.05-0.1% survival)"},
      {"measurement": "Persisters", "setting": "[5]; strain CJN698", "value": "++ (0.1-1% survival)"},
      {"measurement": "Persisters", "setting": "[5]; strain CJN702", "value": "++ (0.1-1% survival)"},
      {"measurement": "Persisters", "setting": "[5]; strain CKY136", "value": "+++ (1-2% survival)"},
      {"measurement": "Persisters", "setting": "[5]; strain CKY138", "value": "++ (0.1-1% survival)"},
      {"measurement": "Persisters", "setting": "[5]; strain CKY357", "value": "++^2 (0.1-1% survival)"},
      {"measurement": "Persisters", "setting": "[5]; strain DAY185", "value": "++ (0.1-1% survival)"},
      {"measurement": "Persisters", "setting": "[5]; strain DAY286", "value": "++ (0.1-1% survival)"},
      {"measurement": "Persisters", "setting": "[5]; strain GKO9", "value": "++ (0.1-1% survival)"},
      {"measurement": "Persisters", "setting": "[5]; strain GKO443", "value": "++ (0.1-1% survival)"},
      {"measurement": "Persisters", "setting": "[5]; strain GKO798", "value": "++ (0.1-1% survival)"},
      {"measurement": "Persisters", "setting": "[5]; strain GKO814", "value": "++ (0.1-1% survival)"},
      {"measurement": "Persisters", "setting": "[5]; strain MC191", "value": "+++ (1-2% survival)"},
      {"measurement": "Persisters", "setting": "[5]; strain MC195", "value": "+ (0.05-0.1% survival)"},
      {"measurement": "Persisters", "setting": "[5]; strain MC245", "value": "++ (0.1-1% survival)"},
      {"measurement": "shape of biofilm killing curve", "setting": "[3]; 24 hrs challenge, CFU", "value": "biphasic killing"},
      {"measurement": "biofilm cells invulnerable to the drug (persisters)", "setting": "[3]; higher concentrations, 24 hrs challenge", "value": "More than 1%"}
    ]},
    {"smiles": "[H]/N=C(\\N/C(=N/[H])NCCCCCCNC(=N)NC(=N)Nc1ccc(Cl)cc1)Nc1ccc(Cl)cc1", "note": "[chlorhexidine]", "values": [
      {"measurement": "killing of exponentially growing and stationary planktonic cells", "setting": "[4]", "value": "eliminated"},
      {"measurement": "concentration at which killing of persisters was observed", "setting": "[3]; 24 hrs challenge", "value": "above 100 μg/ml"},
      {"measurement": "concentration at which the biofilm was completely sterilized", "setting": "[3]; 24 hrs challenge", "value": 1000, "unit": "µg/mL"},
      {"measurement": "shape of biofilm killing curve", "setting": "[3]; 24 hrs challenge, CFU", "value": "biphasic killing"}
    ]},
    {"smiles": "Clc1ccc(COC(Cn2ccnc2)c2ccc(Cl)cc2Cl)c(Cl)c1", "note": "(stereo not shown) [miconazole]", "values": [
      {"measurement": "MIC of logarithmically growing cells", "setting": "C. albicans", "value": 0.03, "unit": "μg/ml"},
      {"measurement": "LD50", "setting": "[6]", "value": 519, "unit": "mg/kg"},
      {"measurement": "biofilm killing by the compound alone (CFU)", "setting": "[1]; 24 hrs", "value": "Neither miconazole nor AC9 alone had any killing activity"},
      {"measurement": "inhibition of metabolic activity by the compound alone (XTT)", "setting": "[2]", "value": "Neither miconazole nor AC9 alone inhibited metabolic activity"},
      {"measurement": "XTT reduction by biofilm", "setting": "[2]; miconazole alone at 10 μg/ml, 24 hrs", "value": "indistinguishable from biofilms with no miconazole"}
    ]}
  ]
}
